Legend:
[1] = molecular target: T1, CISD2 Gene Product (NAF-1) (Homo sapiens, UniProt Q8N5K1); assay: Stability of Fe-S cluster binding of purified NEET protein (absorbance 458 nm); assay type: biochemical; details: for Time (in minutes) to achieve 50% loss of bound cluster (Absorbance 458 nm) / Residual cluster bound at end of experiment (Percentage Absorbance 458 nm at time zero): NAF-1 20 μM, compound 60 μM; for Time (in minutes) to achieve 50% loss of bound cluster (Absorbance 458 nm): pH 6, 37° C., run time 500 minutes, vehicle control 310 or 210; for Residual cluster bound at end of experiment (Percentage Absorbance 458 nm at time zero): pH 6, at 500 minutes, vehicle control 3%; for Stabiliser or destabiliser of Fe-S cluster binding by CISD2 Gene Product (NAF-1): time to 50% cluster loss changed by more than 25% compared to the Control sample, at the concentrations tested
T1 sequence (Q8N5K1 57-135 limits assumed): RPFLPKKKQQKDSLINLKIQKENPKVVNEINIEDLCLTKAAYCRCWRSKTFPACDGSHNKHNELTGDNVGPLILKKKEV
Description: (§1) The modulator effect on the NEET proteins encoded by human CISD1, CISD2, and CISD3 genes by the compounds of the invention has been tested and is reported below. Particularly, the biochemical function of the NEET proteins is measured by the stability of Fe—S cluster binding of the purified NEET proteins.
(§2) The Fe—S cluster binding capacity of NEET proteins is known to be coordinated by four amino-acids in a stretch of 16 (three Cysteine and one Histidine). As the lability of the Fe—S cluster of NEET proteins is sensitive to the environment, cluster stability measurements are one of the measures of interactions of NEET proteins with small molecules and compounds. NEET protein/2Fe-2S cluster stability can be assessed by monitoring the decay in absorbance of its characteristic 458-nm peak (characteristic of the oxidized 2Fe-2S cluster) over time. Each NEET protein (mitoNEET, NAF-1 and Miner 2) was tested for its Fe—S binding in the absence or presence of a compound according to the invention (see table 4 below). The rate of cluster release (time in minutes to achieve 50% loss of bound Fe—S cluster) was compared for each NEET protein in the presence of one of the compounds of the invention (in a 1:3 protein:compound molar ratio) relative to each protein alone.
(§3) At pH 6, all the three NEET proteins (mitoNEET, NAF-1 and Miner 2) have a characteristic rate of loss of the bound Fe—S cluster that can be measured by the decrease of absorbance at wavelength 458 nm over time, using a spectrophotometer. Thus, Bis-Tris buffer (100 mM Bis-Tris pH6, 100 mM Nacl) was used at pH 6 to dilute either DMSO (Blank sample: Bis-Tris Buffer pH 6, 66 μM DMSO), DMSO and one of the three NEET proteins (Control sample: Bis-Tris Buffer pH 6, 66 μM DMSO, 20 μM purified NEET protein) or DMSO, one of the three NEET proteins and a compound of the invention (Test sample: Bis-Tris Buffer pH 6, 66 μM DMSO, 20 μM purified NEET protein, 60 μM compound of the invention).
(§4) A reaction mix containing DMSO diluted in the Bis-Tris Buffer with or without a compound of the invention was prepared. The purified NEET protein was the last component added to the reaction mix which was then aliquoted into 4 replicates in 96 wells plates. The absorbance at wavelength 458 nm was taken at 5 minutes intervals at 37° C. with a spectrofluorimeter. The assay run time for CISD2 gene product (NAF-1) was 500 minutes and 180 minutes for both the CISD1gene product (mitoNEET) and the CISD3 gene product (Miner2).
(§5) In addition to time monitoring, residual bound Fe—S cluster to NEET protein was measured at the final point of the spectrometry assay for each Test sample and compared to the Control sample data (in parenthesis table 4). This residual binding is measured by the differential percentage between the absorbance 458 nm at time zero and the absorbance 458 nm at the end of the experiment (i.e. respectively 500 or 180 minutes as described here above), showing the percentage of NEET protein still able to bind a Fe—S cluster.
(§6) Analysis of the absorbance enables the time for which 50% loss of bound Fe—S cluster is reached (i.e. a 50% absorbance decrease at 458 nm) for each Test sample and each Control sample (in parenthesis table 4) to be determined. The data are then compared to determine whether the compound of the invention stabilizes or destabilizes the NEET protein/Fe—S cluster binding.

[2] = molecular target: T2, CISD3 Gene Product (Miner2) (Homo sapiens, UniProt P0C7P0); assay: as above; assay type: biochemical; details: for Residual cluster bound at end of experiment (Percentage Absorbance 458 nm at time zero): CISD3 gene product 20 μM, pH 6, at 180 minutes, vehicle control 11%; for Residual cluster bound at end of experiment (Percentage Absorbance 458 nm at time zero) / Time (in minutes) to achieve 50% loss of bound cluster (Absorbance 458 nm): compound 60 μM; for Time (in minutes) to achieve 50% loss of bound cluster (Absorbance 458 nm): Miner2 20 μM, pH 6, 37° C., run time 180 minutes, vehicle control 60; for Stabiliser or destabiliser of Fe-S cluster binding by CISD3 Gene Product (Miner2): time to 50% cluster loss changed by more than 25% compared to the Control sample, at the concentrations tested
T2 sequence (P0C7P0 15-127): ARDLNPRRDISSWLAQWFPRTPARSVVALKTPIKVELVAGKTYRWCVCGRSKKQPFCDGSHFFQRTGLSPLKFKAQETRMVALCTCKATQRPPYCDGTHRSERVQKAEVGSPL
Description: as §1, §2, §3, §4, §5, §6

[3] = molecular target: T3, CISD1 Gene Product (mitoNEET) (Homo sapiens, UniProt Q9NZ45); assay: as above; assay type: biochemical; details: for Time (in minutes) to achieve 50% loss of bound cluster (Absorbance 458 nm) / Residual cluster bound at end of experiment (Percentage Absorbance 458 nm at time zero): mitoNEET 20 μM, compound 60 μM; for Time (in minutes) to achieve 50% loss of bound cluster (Absorbance 458 nm): pH 6, 37° C., run time 180 minutes, vehicle control 80; for Residual cluster bound at end of experiment (Percentage Absorbance 458 nm at time zero): pH 6, at 180 minutes, vehicle control 16%; for Stabiliser or destabiliser of Fe-S cluster binding by CISD1 Gene Product (mitoNEET): time to 50% cluster loss changed by more than 25% compared to the Control sample, at the concentrations tested
T3 sequence (Q9NZ45 33-108 limits assumed): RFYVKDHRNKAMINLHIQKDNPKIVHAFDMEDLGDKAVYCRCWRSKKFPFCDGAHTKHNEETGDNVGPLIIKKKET
Description: as §1, §2, §3, §4, §5, §6

[4] = system: H1N1 (influenza A/New Caledonia/20/99); assay: microbe, parasite or virus in culture; assay type: cell-based; details: H1N1, A549, 48 h

Structure (SMILES)	Time (in minutes) to achieve 50% loss of bound cluster (Absorbance 458 nm) [1]	Residual cluster bound at end of experiment (Percentage Absorbance 458 nm at time zero) [1]	Residual cluster bound at end of experiment (Percentage Absorbance 458 nm at time zero) [2]	Time (in minutes) to achieve 50% loss of bound cluster (Absorbance 458 nm) [2]	Stabiliser or destabiliser of Fe-S cluster binding by CISD3 Gene Product (Miner2) [2]	Time (in minutes) to achieve 50% loss of bound cluster (Absorbance 458 nm) [3]	Residual cluster bound at end of experiment (Percentage Absorbance 458 nm at time zero) [3]	IC50 [4]	Stabiliser or destabiliser of Fe-S cluster binding by CISD2 Gene Product (NAF-1) [1]	Stabiliser or destabiliser of Fe-S cluster binding by CISD1 Gene Product (mitoNEET) [3]
CC1CC(C)(C)Cc2sc(NC(=O)c3ccc(NC4CCOCC4)cc3)c(C(=O)O)c21 (stereo not drawn) [Compound #136, 4,6,6-Trimethyl-2-[[4-(tetrahydropyran-4-ylamino)benzoyl]amino]-5,7-dihydro-4H-benzothiophene-3-carboxylic acid]	325 (310) minutes	5% (3%)	10% (11%)	45 (60) minutes	Destabilisers	75 (80) minutes	2% (16%)	12 nM		
COC1CN(c2ccc(C(=O)Nc3sc4c(c3C(=O)O)CCC(C)(C)C4)cc2)C1 [Compound #147, 2-[[4-(3-Methoxyazetidin-1-yl)benzoyl]amino]-6,6-dimethyl-5,7-dihydro-4H-benzothiophene-3-carboxylic acid]	85 (310) minutes	5% (3%)	10% (11%)	60 (60) minutes		75 (80) minutes	11% (16%)	11.1 nM	destabilisers	
COc1ccc(C(=O)Nc2sc3c(c2C(=O)O)CCC(C)(C)C3)cc1 [Compound #20, 2-[(4-Methoxybenzoyl)amino]-6,6-dimethyl-5,7-dihydro-4H-benzothiophene-3-carboxylic acid]	300 (310) minutes	4% (3%)	9% (11%)	35 (60) minutes	Destabilisers	65 (80) minutes	0% (16%)	74 nM		
CN(c1ccc(C(=O)Nc2sc3c(c2C(=O)O)CC(C)(C)CC3(C)C)cc1)C1CCOCC1 [Compound #135, 5,5,7,7-Tetramethyl-2-[[4-[methyl(tetrahydropyran-4-yl)amino]benzoyl]amino]-4,6-dihydrobenzothiophene-3-carboxylic acid]	160 (310) minutes	16% (3%)	20% (11%)	80 min	Stabilisers	100 (80) minutes	24% (16%)	6.1 nM	destabilisers	stabilisers
CC1(C)Cc2c(sc(NC(=O)c3ccc(Br)cc3)c2C(=O)O)C(C)(C)C1 [Compound #138, 2-[(4-Bromobenzoyl)amino]-5,5,7,7-tetramethyl-4,6-dihydrobenzothiophene-3-carboxylic acid]	435 (210) minutes	30% (3%)	66% (11%)		Stabilisers		53% (16%)	8.8 nM	Stabilisers	stabilisers
